Experimental data: patent US20010005752A1, “Fluorescent dyes (AIDA) for solid phase and solution phase screening” (priority 1998, published 2001)

Columns and labels:
[1] = in acetonitrile; cited from earlier work
[2] = in acetonitrile; cited from earlier work; remark: listed apart in the source
avidin-BODIPY-FL = biological target: T1, avidin-BODIPY-FL (Gallus gallus, UniProt P02701); assay: FRET / quenching with avidin-BODIPY-FL (AIDA donor, BODIPY-FL acceptor); format: binding
T1 construct: BODIPY FL (chemical fluorescent label, about 3.3 per avidin); purchased Molecular Probes (Eugene, Oreg.) A-2641
T1 sequence (P02701 25-152): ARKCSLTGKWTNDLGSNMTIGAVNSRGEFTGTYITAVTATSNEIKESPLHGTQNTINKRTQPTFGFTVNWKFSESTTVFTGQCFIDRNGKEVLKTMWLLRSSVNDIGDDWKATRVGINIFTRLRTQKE
Procedure: (§1) For solubility reasons, 4e is spectroscopically characterized in THF. All complexation reactions and fluorescence resonance energy transfer measurements are performed in PBS/5% DMSO at 25° C., unless indicated otherwise.
(§2) Spectral bandwidths are set to 8 and 16 nm for excitation and emission, respectively. Measurements are performed at 25° C. in a 750 μL quartz cuvette (10 mm optical pathlength) without stirring after initial mixing. A concentration of 50 nM of 9 or 11 is used for complexation with 1 μM of (fluorescent) avidin. […] All titrations are performed in magic angle setting, with the emission wavelength set to […] in experiments where the indazole is the acceptor, and with an excitation spectrum recorded from 250 nm to 360 nm. In experiments where indazole is used as donor and Lucifer Yellow or BODIPY FL is the acceptor, the excitation wavelength is set to 338 nm or 325 nm. The fluorescence emission is collected between 360 nm and 700 nm. The spectra are corrected for Raman scattering from the PBS solution, for dilution, and for inner filter effects due to protein additions, The signal is adjusted for lamp intensity changes by ratio mode detection with a Rhodamine B quantum counter in the reference channel. A WG 360 emission cutoff filter is used for straylight reduction. Data are collected in 2 nm increments with 1 second integration time.
In these experiments 11 was used as donor and BODIPY-FL as acceptor. At an excitation wavelength of 338 nm the emission of 11 between 360 nm and 516 nm is strongly quenched by approximately 80% in the complexed form. The standard definition for energy transfer efficiency, E=1−Fda/Fd, would result in E≅0.8. […] The approximately 80% reduction in signal intensity of 11 can be caused either by FRET or from local quenching of the fluorescence of 11 mainly by ground state interactions. […] Due to the broad fluorescence emission of 11 in water the detection wavelength can be shifted up to 500 nm which is at lower energy than most background fluorescence signals from small chemical compounds.

avidin [3] = biological target: T2, avidin (Gallus gallus, UniProt P02701); assay: FRET / quenching with unlabelled avidin (tryptophan donor, AIDA acceptor); format: binding
T2 construct: purchased Molecular Probes (Eugene, Oreg.) A-2767
T2 sequence (P02701 25-152): as above
Procedure: as §1, §2
An emission wavelength at 480 nm was chosen because the tryptophan fluorescence of avidin had almost reached the baseline level at this emission energy, resulting in only minor avidin fluorescence contribution between 250 and 370 nm. […] This quenching effect can be attributed to all radiative and non-radiative processes occurring to 11 in the vicinity of the tryptophans in the binding cleft. Corresponding to the ratio of the negative and positive areas under the fluorescence difference curve (black), 62% of this total quenching effect is fluorescence resonance energy transfer. From 250 to 305 nm the enhancement of the tryptophan and tyrosine fluorescence intensity is 72% based on the sum of 11 and avidin.

[4] = Steady-state fluorescence spectroscopy (excitation and emission spectra); format: physicochemical; details: for Emission range in parenthesis / Emission λmax / Excitation range in parenthesis / Excitation λmax: acetonitrile/2% DMSO
Procedure: Steady-state fluorescence measurements are performed on a SLM 8000C spectro-fluorometer equipped with JD490 photomultipliers and a 450 W Xenon Arclamp (SLM Instruments, Urbana, Ill.).
[…] Spectral bandwidths are set to 1 and 4 nm for excitation and emission, respectively. Spectra are recorded in single photon counting mode. Changes in lamp intensity are corrected with a quantum counter in the reference channel, measured in slow mode. Gain is set to x 100 with a high voltage (HV) of 640 V. Integration time is 2 seconds. For excitation spectra measurements, the emission wavelength is set to 397 nm and the sample is excited from 200 to 400 nm. For recording emission spectra, the sample is excited at 342 nm and the emission is recorded from 350 to 540 nm. The data are averaged over two scans.

avidin [5] = biological target: T2, avidin; assay: Time-resolved fluorescence depolarisation on binding of avidin; details: PBS/5% DMSO
Procedure: Picosecond time-resolved fluorescence measurements are recorded according to the single photon counting technique [Lakowicz, 1983 p 52-93, 112-153, 156-185]. An Ar^+-pumped Ti:Sapphire laser (model MIRA 900, Coherent, Santa Clara, USA) provided under mode-locked conditions ultrashort pulses (FWHM=150 fs) with a frequency of 75 MHz. To reduce the repetition rate to 4.7 MHz, a pulse picker (model 9200, Coherent, Santa Clara, USA) is inserted into the beam. […] Fluorescence photons are collected in a Spex 1681 single grating monochromator (Spex, Edison, USA) and detected with the Hamamatsu R3809U microchannel plate (Hamamatsu, Shimokanzo, Japan). […] The voltage values which correspond to the time passed between excitation and emission of a fluorescence photon in a single experiment are stored in the Spectrum Master 921 (Ortec, Oak Ridge, USA) which is connected to the multichannel emulation program Maestro (Ortec, Oak Ridge, USA). […]
c. Binding of AIDA conjugate 8 to avidin-BODIPY detected by rotational diffusion and energy transfer: Energy transfer between the indazole moiety in 8 and the 3.3 BODIPY-FL lables on avidin by time-resolved fluorescence spectroscopy.
Binding of avidin labelled with BODIPY-FL to 8 creates a further depolarisation mode for the indazole fluorescence: Fluorescence resonance energy transfer between the indazole moiety of 8 and the BODIPY-FL labels. […]

[6] = UV-Vis absorption spectroscopy; format: physicochemical; details: acetonitrile/2% DMSO
Procedure: UV-Vis absorption spectroscopy is performed on a Cary 1E spectrophotometer. […]
[…] […] From each stock solution, 5 dilutions with concentrations of 2.5 μm, 10 μM, 17 μM, 25 μm and 35 μM are made. UV-spectra of each dilution are recorded from 200 to 400 nm, using a quarz cuvette with a pathlength of 1 cm. […] A linear fit is carried out for each series of measurements. The extinction coefficient ε at 337 nm is given by the slope of the linear regression.

avidin [7] = biological target: T2, avidin; assay: Fluorescence anisotropy as signal for binding to avidin
Procedure: as §1
(§3) Fluorescence anisotropy is calculated according to [Lakowicz, 1983].
(§4) Spectral bandwidths are set to 4 and 8 nm for excitation and emission, respectively, with 5 seconds integration time. For calculation of fluorescence anisotropy ten data points are averaged.
(§5) This value is indicative for a small monomeric molecule rotating free in solution. […] When 1 μM of the BODIPY-FL labelled avidin was used as substrate the r-value was 0.100. This reduced change in anisotropy probably reflects the lower affinity of the BODIPY-FL labelled avidin as compared to the unlabelled material.

[8] = biological target: T3, BODIPY-FL labelled avidin (Gallus gallus, UniProt P02701); assay: Fluorescence anisotropy with BODIPY-FL labelled avidin; format: binding; details: 50 nM conjugate, 1 μM BODIPY-FL labelled avidin
T3 construct: BODIPY FL (chemical fluorescent label, about 3.3 per avidin); purchased Molecular Probes (Eugene, Oreg.) A-2641
T3 sequence (P02701 25-152): as above
Procedure: as §1, §3, §4, §5

[9] = unlabelled avidin, conjugate as acceptor

c1ccc2[nH]ncc2c1 [1H-indazole]
maximum of fluorescence emission [1]: 298 nm
maximum of absorption [2]: 294 nm

NC(=O)c1ccc(-n2nc(-c3ccc(C(=O)NCCCNC(=O)CCCCC4SCC5NC(=O)NC54)cc3)c3ccccc32)cc1 (stereo not drawn) [compound 8, 3′(+)-4-{3-[4-(3′-Biotinoylaminopropyl)-aminocarbonyl]phenyl-1H-indazol-1-yl}-benzoic acid Amide]
quenching of indazole (donor) emission in complex with avidin-BODIPY-FL (avidin-BODIPY-FL; 50 nM conjugate, 1 μM avidin-BODIPY-FL, excitation 338 nm, emission 360-516 nm): 93.5%
fluoresence energy transfer (acceptor sensitization) (avidin-BODIPY-FL; avidin-BODIPY complex): 48%
enhanced energy transfer (tryptophan/indazole) (avidin [3]; [9]): 120%
increase in indazole fluorescence emission on avidin complexation (avidin [3]; [9]): 26%
Emission range in parenthesis [4]: 360-480 nm
Emission λmax [4]: 394 nm
Excitation range in parenthesis [4]: 310-360 nm
Excitation λmax [4]: 332 nm
fluorescence depolarisation on binding of avidin (unlabelled) (avidin [5]): slower depolarisation
Absorption λmax [6]: 331 nm
ε (at absorption λmax) [6]: 32158 M⁻¹ cm⁻¹

C=CCOC(=O)c1ccc(-c2nn(-c3ccc(C(=O)N[C@@H](CCCCNC(=O)CCCCC4SCC5NC(=O)NC54)C(=O)O)cc3)c3ccccc23)cc1 (stereo partly drawn) [compound 11]
change of anisotropy on binding to avidin (avidin [7]; 50 nM conjugate, 1 μM avidin): +444%
fluorescence anisotropy bound to avidin (avidin [7]; 50 nM conjugate, 1 μM avidin): 0.151
basic fluorescence anisotropy (free conjugate) (avidin [7]; 50 nM, excitation 338 nm, emission 438 nm, no avidin): 0.034
energy transfer efficiency E=1−Fda/Fd (avidin-BODIPY-FL; standard definition, stated as not valid here): ~0.8
quenching of conjugate fluorescence by complexation in the avidin binding site (avidin [3]; 50 nM conjugate, 1 μM unlabelled avidin, emission 480 nm): about 25.5%
enhancement of tryptophan and tyrosine fluorescence intensity (avidin [3]; 250 to 305 nm, based on the sum of 11 and avidin): 72%
tryptophan to conjugate energy transfer relative to free avidin plus 11 (avidin [3]; detected at 480 nm): 70%
part of total quenching effect that is fluorescence resonance energy transfer (avidin [3]; ratio of negative and positive areas under difference curve): 62%
fluorescence anisotropy (r-value) with BODIPY-FL labelled avidin [8]: 0.100
emission maximum ([4]; 50 nM, PBS/5% DMSO, excitation 338 nm): 438 nm
emission intensity at 500 nm ([4]; PBS buffer, 500 nm): about 50%
Emission range in parenthesis [4]: 370-480 nm
Emission λmax [4]: 397 nm
Excitation range in parenthesis [4]: 310-360 nm
Excitation λmax [4]: 336 nm
Absorption λmax [6]: 334 nm
ε (at absorption λmax) [6]: 34349 M⁻¹ cm⁻¹
